Legend:
Assay type in all cases: binding, mouse
[1] = system: monoclonal anti-theophylline antibody; assay: Competitive kinetics: theophylline derivatives mixed with aminotheophylline-conalbumin conjugate over captured anti-theophylline Mab (BIAcore SPR); settings: 500 nM ligand solution mixed with 620 nM conjugate solution; 10 μl/min for 90 seconds; FIG. 5
Method: (§1) A continuous flow of HBS (10 mM Hepes with 0.15M NaCl, 3.4 mM EDTA and 0.05% surfactant P20 at pH 7.4) was maintained over a BIAcore™ sensor chip CM5 (a gold-plated glass slide supporting a carboxymethyldextran layer via a monolayer of long-chain hydrocarbons; supplied by Pharmacia Biosensor AB, Uppsala, Sweden). The carboxylated matrix on the sensor surface was activated by a three-minute injection of a solution containing 0.2M N-ethyl-N'-(3-diethylaminopropyl)carbodiimide (EDC) and 0.05M N-hydroxysuccinimide (NHS). 100 μg/ml of rabbit anti-mouse Fc (RAMFc) antibodies (Pharmacia Biosensor AB, Uppsala, Sweden) in 10 mM acetate buffer, pH 4.75, were then injected followed by a pulse of ethanolamine-hydrochloride, pH 8.5, to block remaining NHS-ester groups.
Different solutions of the above prepared conalbumin conjugate varying in concentration from 100 to 1000 nM, were then injected and the binding curves were recorded.

[2] = system: monoclonal anti-histamine antibody; assay: Competitive kinetics: histamine and methylhistamine mixed with histamine-conalbumin conjugate over captured anti-histamine Mab (BIAcore SPR); settings: 220 nM ligand solution mixed with 80 nM conjugate solution; 10 μl/min for 8 minutes; FIG. 6
Method: as §1
Different solutions of the above prepared conalbumin conjugate, varying in concentration from 100 to 1000 nM, were then injected and the binding curves were recorded. […] For the following competitive experiment, a concentration of 80 nM was chosen.

[3] = system: monoclonal anti-p24 antibody (Mab 7); assay: Competitive kinetics: synthetic p24 derived peptides mixed with p24 over captured anti-p24 Mab (BIAcore SPR); settings: for affinity for the antibody (qualitative): p24 at 60 nM and the peptides at 44 μM, FIG. 4
Method: With the above prepared sensor surface docked into the BIAcore™ instrument, a solution of purified monoclonal anti-p24 antibody (Pharmacia Diagnostics AB, Uppsala, Sweden), hereinafter referred to as Mab 7, was injected, the anti-p24 monoclonal antibody thereby being captured by the immobilized RAMFc. Different solutions of HIV core protein p24 (Pharmacia Genetic Engineering, San Diego, USA), varying in concentration from 18.75 to 300 nM, were then injected and the binding curves, relative response in resonance units (RU) versus time in seconds, were recorded (1 RU corresponds to a mass change, caused by the binding of a protein, on the sensor surface of about 1 pg/mm^2; Stenberg, E., et al., J. Colloid and Interface Sci. 143 (1991) 513-526).
100 μl volumes of a 60 nM solution of p24 in HBS were mixed with 100 μl of different concentrations (5 nM to 1 mM) of two synthetic p24 derived peptides corresponding to (i) the regions 329-352 (peptide 7): […] (Mw =2494), and (ii) the regions 332-349 (peptide 5): […] (Mw =1841) (obtained from Dr Ake Engstrom, Department of Immunology, Biomedical Center, University of Uppsala, Sweden). The peptide sequences are according to Ratner et al., Nature 313, 227-284, 1985 and are numbered according to Myers G. et al., Database Human Retroviruses and AIDS, Los Alamos National Laboratory, Los Alamos, U.S.A., 1988. Each mixture was injected at 10 μl/min for two minutes over the sensor surface with captured anti-p24 antibody and the respective binding curves for each peptide were recorded. Peptide 5 was used at the concentrations: 0, 4.91, 14.75, 44.26, 132.78, 398.33, and 1195.00 μM; and peptide 7 at the concentrations 0, 0.005, 0.016, 0.049, 0.147, 0.441, and 1.323 μM.
The binding curves for peptide 5 are shown in overlay plot in FIG. 2, and a corresponding overlay plot of the binding curves for peptide 7 is shown in FIG. 3. […] Evidently, these two peptides have quite different affinities for the immobilized antibody.

Molecule | affinity for the antibody (relative ranking) [1] | affinity for the antibody (relative ranking) [2] | affinity for the antibody (qualitative) [3] | also measured
aminotheophylline | highest affinity | – | – | –
methylhistamine | – | higher affinity | – | –
TILKALGPAATLEEMMTA [peptide 5, synthetic p24 derived peptide, regions 332-349] | – | – | low affinity | peptide concentration at which competition is evident ([3]; mixed with 60 nM p24 solution, 10 μl/min for two minutes, FIG. 2): evident only at μM concentrations
DCKTILKALGPAATLEEMMTACQG [peptide 7, synthetic p24 derived peptide, regions 329-352] | – | – | high affinity | peptide concentration at which competing kinetics is seen ([3]; mixed with 60 nM p24 solution, 10 μl/min for two minutes, FIG. 3): 5 nM
Cn1c(=O)c2c(ncn2CC(=O)O)n(C)c1=O [acetic acid derivative of theophylline, 7-theophylline acetic acid] | much lower affinity | – | – | –
NCCc1c[nH]cn1 [histamine] | – | methylhistamine has a higher affinity for the antibody than histamine itself | – | –
